Laboratory results taken from publication PMC9069370, “Integrated Design of a Membrane‐Lytic Peptide‐Based Intravenous Nanotherapeutic Suppresses Triple‐Negative Breast Cancer” (Advanced Science, 2022).
Peptide text beside a SMILES is read from it.

How the values were obtained:
HMLER‐shEcad = experiment: cells; format: cell-based, human; settings: 72 h
Text: (§1) […], and MCF-10A cells were maintained in MEGM with supplements and growth factors bovine pituitary extract, hydrocortisone, human epidermal growth factor, insulin, and gentamicin/amphotericin-B.

HMLER = experiment: cells; format: cell-based, human; settings: 72 h
Text: as §1

MCF‐10A = experiment: cells; format: cell-based, human; settings: 72 h
Text: as §1

U2OS = format: cell-based, human; settings: 72 h
[1] = Tryptophan fluorescent binding assay; settings: tryptophan fluorescence; 50 µM peptide, lipid titrated 0-5000 µM; phosphate buffered saline 1X, pH 7.4; values as lipid per peptide
Description: 50 µM ACP peptides and varied concentrations (concentrations: 0, 25, 50, 100, 150, 200, 250, 500, 1250, and 2500 µM) of POPC or POPC:POPG (3:1 ratio) large unilamellar vesicles were prepared in 10 mM phosphate buffer (pH 7.0). The solutions were measured after 1 h of incubation. Excitation was fixed at 280 nm (slit 9 nm) and emission was collected from 300 to 450 nm (slit 9 nm). The spectra were recorded using Cytation 5 Cell Imaging Multi‐Mode Reader from BioTek and were averaged by three scans.
Lipid Concentration-induced
Name Sequence† 50% Peptide Binding (L/P)
Extended Data Table 3 | Tryptophan binding assay. […]
peptide binding onto liposome. 50 µM peptides were fixed and incubated with titrated lipid (POPC vesicle […]
phosphate buffered saline (1X, pH 7.4). The lipid concentration that causes 50 % peptide binding was determined using tryptophan fluorescent binding assay and the values are shown as lipid per peptide.

[2] = ANTS/DPX liposome leakage assay; settings: for Peptide Concentration-induced 50 % ANTS/DPX leakage at pH 4.8 (L/P), 3POPC/1POPG Vesicle / Peptide Concentration-induced 50 % ANTS/DPX leakage at pH 4.8 (L/P), POPC Vesicle / Peptide Concentration-induced 50 % ANTS/DPX leakage at pH 7.4 (L/P), 3POPC/1POPG Vesicle / Peptide Concentration-induced 50 % ANTS/DPX leakage at pH 7.4 (L/P), POPC Vesicle: 0.5 mM vesicles, peptide 0-20 µM, 3 h incubation, lipid per peptide; for Peptide Concentration-induced 50 % ANTS/DPX leakage at pH 4.8 (L/P), 3POPC/1POPG Vesicle / Peptide Concentration-induced 50 % ANTS/DPX leakage at pH 4.8 (L/P), POPC Vesicle: HCl-adjusted PBS 1X pH 4.8; for Peptide Concentration-induced 50 % ANTS/DPX leakage at pH 7.4 (L/P), 3POPC/1POPG Vesicle / Peptide Concentration-induced 50 % ANTS/DPX leakage at pH 7.4 (L/P), POPC Vesicle: PBS 1X pH 7.4, high ratio = more potent
Description: Vesicle preparation: 5 mM ANTS and 12.5 mM DPX were entrapped in 0.1 µm diameter extruded vesicles (either POPC or POPC/POPG at a ratio of 3:1) with lipids. Gel filtration chromatography of Sephadex G‐100 was used to remove external free ANTS/DPX from LUVs with entrapped contents. LUVs were diluted to 0.5 mM and used to measure the leakage activity by the addition of aliquots of ACPs. Leakage was measured after 3 h incubation. 10% Triton was used as the positive control to measure the maximum leakage of the vesicle. Fluorescence emission spectra were recorded using excitation and emission wavelength of 350 and 510 nm for ANTS/DPX using a BioTek Synergy H1 Hybrid Multi‐Mode Reader.
Peptide Concentration-induced Peptide Concentration-induced
Name Sequence† 50 % ANTS/DPX leakage 50 % ANTS/DPX leakage at pH 7.4 (L/P) at pH 4.8 (L/P)
POPC Vesicle 3POPC/1POPG Vesicle POPC Vesicle 3POPC/1POPG Vesicle […]
Extended Data Table 4 | Peptide concentration-induced 50 % ANTS/DPX liposome leakage. 0.5 mM POPC and 3POPC/1POPG vesicles were fixed and incubated with titrated peptide concentration (0, 0.02, […]
hydrochloric acid-adjusted phoshate buffered saline (1X, pH 4.8). The values are shown as lipid per

HEK293T = experiment: cells; format: cell-based, human; settings: 72 h

Structure (SMILES)	IC50 (HMLER‐shEcad)	IC50 (HMLER)	IC50 (MCF‐10A)	IC50 (U2OS)	Lipid Concentration-induced 50% Peptide Binding (L/P), 3POPC/1POPG Vesicle [1]	Lipid Concentration-induced 50% Peptide Binding (L/P), POPC Vesicle [1]	Peptide Concentration-induced 50 % ANTS/DPX leakage at pH 4.8 (L/P), 3POPC/1POPG Vesicle [2]	Peptide Concentration-induced 50 % ANTS/DPX leakage at pH 4.8 (L/P), POPC Vesicle [2]	Peptide Concentration-induced 50 % ANTS/DPX leakage at pH 7.4 (L/P), 3POPC/1POPG Vesicle [2]	Peptide Concentration-induced 50 % ANTS/DPX leakage at pH 7.4 (L/P), POPC Vesicle [2]	IC50 (HEK293T)	change of ANTS/DPX dye leakage / liposome selectivity at pH 4.8 ([2]; pH = 4.8 compared with physiological pH, anionic versus neutral liposomes)
CC(C)C[C@H](NC(=O)CN)C(=O)N[C@@H](CC(C)C)C(=O)N[C@@H](Cc1c[nH]cn1)C(=O)N[C@@H](CC(C)C)C(=O)N[C@@H](CC(C)C)C(=O)N[C@@H](CCC(=O)O)C(=O)N[C@@H](CC(C)C)C(=O)N[C@@H](CC(C)C)C(=O)N[C@@H](CC(C)C)C(=O)N[C@@H](CCC(=O)O)C(=O)N[C@@H](C)C(=O)N[C@@H](C)C(=O)NCC(=O)N[C@@H](Cc1c[nH]c2ccccc12)C(N)=O [HEE] (H-GLLHLLELLLEAAGW-NH2)	4.95 ± 0.49 µM	6.5 ± 0.71 µM	58 ± 41 µM	47.5 ± 11 µM	0.50 L/P	0.58 L/P	122 L/P	100 L/P	792 L/P	876 L/P	10.2 ± 0.2 µM	
CC(C)C[C@H](NC(=O)CN)C(=O)N[C@@H](CC(C)C)C(=O)N[C@@H](Cc1c[nH]cn1)C(=O)N[C@@H](CC(C)C)C(=O)N[C@@H](CC(C)C)C(=O)N[C@@H](CCC(=O)O)C(=O)N[C@@H](CC(C)C)C(=O)N[C@@H](CC(C)C)C(=O)N[C@@H](CC(C)C)C(=O)N[C@@H](Cc1c[nH]cn1)C(=O)N[C@@H](C)C(=O)N[C@@H](C)C(=O)NCC(=O)N[C@@H](Cc1c[nH]c2ccccc12)C(N)=O [HEH] (H-GLLHLLELLLHAAGW-NH2)	11 ± 1.06 µM	28.6 ± 10.8 µM	> 200 µM	106 ± 14 µM	3.50 L/P	0.88 L/P	24 L/P	173 L/P	505 L/P	995 L/P	8.8 ± 1.7 µM	increased selectivity for neutral bilayers
CC(C)C[C@H](NC(=O)CN)C(=O)N[C@@H](CC(C)C)C(=O)N[C@@H](Cc1c[nH]cn1)C(=O)N[C@@H](CC(C)C)C(=O)N[C@@H](CC(C)C)C(=O)N[C@@H](CCC(=O)O)C(=O)N[C@@H](CC(C)C)C(=O)N[C@@H](CC(C)C)C(=O)N[C@@H](CC(C)C)C(=O)N[C@@H](CCCCN)C(=O)N[C@@H](C)C(=O)N[C@@H](C)C(=O)NCC(=O)N[C@@H](Cc1c[nH]c2ccccc12)C(N)=O [HEK] (H-GLLHLLELLLKAAGW-NH2)	3.45 ± 2.19 µM	2.35 ± 1.06 µM	29.8 ± 7.35 µM	143 ± 80.3 µM	0.46 L/P	0.44 L/P	411 L/P	97 L/P	386 L/P	755 L/P	6.95 ± 1.63 µM	
CC(C)C[C@H](NC(=O)CN)C(=O)N[C@@H](CC(C)C)C(=O)N[C@@H](Cc1c[nH]cn1)C(=O)N[C@@H](CC(C)C)C(=O)N[C@@H](CC(C)C)C(=O)N[C@@H](Cc1c[nH]cn1)C(=O)N[C@@H](CC(C)C)C(=O)N[C@@H](CC(C)C)C(=O)N[C@@H](CC(C)C)C(=O)N[C@@H](CCC(=O)O)C(=O)N[C@@H](C)C(=O)N[C@@H](C)C(=O)NCC(=O)N[C@@H](Cc1c[nH]c2ccccc12)C(N)=O [HHE] (H-GLLHLLHLLLEAAGW-NH2)	10.8 ± 0.78 µM	16.7 ± 2.26 µM	> 200 µM	53.2 ± 5.3 µM	0.75 L/P	1.00 L/P	113 L/P	143 L/P	411 L/P	842 L/P	18.4 ± 3.75 µM	
CC(C)C[C@H](NC(=O)CN)C(=O)N[C@@H](CC(C)C)C(=O)N[C@@H](Cc1c[nH]cn1)C(=O)N[C@@H](CC(C)C)C(=O)N[C@@H](CC(C)C)C(=O)N[C@@H](Cc1c[nH]cn1)C(=O)N[C@@H](CC(C)C)C(=O)N[C@@H](CC(C)C)C(=O)N[C@@H](CC(C)C)C(=O)N[C@@H](Cc1c[nH]cn1)C(=O)N[C@@H](C)C(=O)N[C@@H](C)C(=O)NCC(=O)N[C@@H](Cc1c[nH]c2ccccc12)C(N)=O [HHH] (H-GLLHLLHLLLHAAGW-NH2)	9.5 ± 0.99 µM	21.1 ± 6.93 µM	79 ± 11.3 µM	185 ± 7 µM	0.82 L/P	0.46 L/P	50 L/P	173 L/P	469 L/P	1133 L/P	30.6 ± 4.81 µM	

The next molecules have a lower IC50 (HMLER‐shEcad) than those just listed; values first:

IC50 (HMLER‐shEcad)	IC50 (HMLER)	IC50 (MCF‐10A)	IC50 (U2OS)	Lipid Concentration-induced 50% Peptide Binding (L/P), 3POPC/1POPG Vesicle [1]	Lipid Concentration-induced 50% Peptide Binding (L/P), POPC Vesicle [1]	Structure (SMILES)	Peptide Concentration-induced 50 % ANTS/DPX leakage at pH 4.8 (L/P), 3POPC/1POPG Vesicle [2]	Peptide Concentration-induced 50 % ANTS/DPX leakage at pH 4.8 (L/P), POPC Vesicle [2]	Peptide Concentration-induced 50 % ANTS/DPX leakage at pH 7.4 (L/P), 3POPC/1POPG Vesicle [2]	Peptide Concentration-induced 50 % ANTS/DPX leakage at pH 7.4 (L/P), POPC Vesicle [2]	IC50 (HEK293T)	change of ANTS/DPX dye leakage / liposome selectivity at pH 4.8 ([2]; pH = 4.8 compared with physiological pH, anionic versus neutral liposomes)
1.9 ± 0.42 µM	2.7 ± 0.28 µM	7.6 ± 0.42 µM	16 ± 0.78 µM	0.25 L/P	0.75 L/P	CC(C)C[C@H](NC(=O)CN)C(=O)N[C@@H](CC(C)C)C(=O)N[C@@H](Cc1c[nH]cn1)C(=O)N[C@@H](CC(C)C)C(=O)N[C@@H](CC(C)C)C(=O)N[C@@H](CCCCN)C(=O)N[C@@H](CC(C)C)C(=O)N[C@@H](CC(C)C)C(=O)N[C@@H](CC(C)C)C(=O)N[C@@H](CCC(=O)O)C(=O)N[C@@H](C)C(=O)N[C@@H](C)C(=O)NCC(=O)N[C@@H](Cc1c[nH]c2ccccc12)C(N)=O [HKE] (H-GLLHLLKLLLEAAGW-NH2)	94 L/P	173 L/P	365 L/P	692 L/P	5.15 ± 0.64 µM	
1.75 ± 0.21 µM	3.15 ± 0.07 µM	5.6 ± 0.14 µM	12.7 ± 1.91 µM	0.20 L/P	0.68 L/P	CC(C)C[C@H](NC(=O)CN)C(=O)N[C@@H](CC(C)C)C(=O)N[C@@H](Cc1c[nH]cn1)C(=O)N[C@@H](CC(C)C)C(=O)N[C@@H](CC(C)C)C(=O)N[C@@H](Cc1c[nH]cn1)C(=O)N[C@@H](CC(C)C)C(=O)N[C@@H](CC(C)C)C(=O)N[C@@H](CC(C)C)C(=O)N[C@@H](CCCCN)C(=O)N[C@@H](C)C(=O)N[C@@H](C)C(=O)NCC(=O)N[C@@H](Cc1c[nH]c2ccccc12)C(N)=O [HHK] (H-GLLHLLHLLLKAAGW-NH2)	111 L/P	149 L/P	160 L/P	1133 L/P	5.25 ± 1.48 µM	
1.19 ± 0.4 µM	1.72 ± 0.21 µM	1.7 ± 0.11 µM	12.2 ± 1.84 µM	0.63 L/P	1.50 L/P	CC(C)C[C@H](NC(=O)CN)C(=O)N[C@@H](CC(C)C)C(=O)N[C@@H](CCC(=O)O)C(=O)N[C@@H](CC(C)C)C(=O)N[C@@H](CC(C)C)C(=O)N[C@@H](CCCCN)C(=O)N[C@@H](CC(C)C)C(=O)N[C@@H](CC(C)C)C(=O)N[C@@H](CC(C)C)C(=O)N[C@@H](CCCCN)C(=O)N[C@@H](C)C(=O)N[C@@H](C)C(=O)NCC(=O)N[C@@H](Cc1c[nH]c2ccccc12)C(N)=O [EKK] (H-GLLELLKLLLKAAGW-NH2)	219 L/P	60 L/P	235 L/P	1095 L/P	3.35 ± 0.49 µM	
